The results in this text go back to patent publication US20190345146A1, “NITROGEN CONTAINING BICYCLIC DERIVATIVES FOR TREATING PAIN AND PAIN RELATED CONDITIONS” (ESTEVE PHARMACEUTICALS, S.A., priority 2016, published 2019).

Like-named read-outs stand apart in the source and are kept apart here.

The target in test [1] is human α2δ-1 subunit of Cav2.2 calcium channel (Homo sapiens, UniProt P54289). In words: Binding assay to human α2δ-1 subunit of Cav2.2 calcium channel ([3H]-Gabapentin). The note with it: read-out: Ki(nM) alpha2delta Hum. The procedure: • Binding assay to human α2δ-1 subunit of Cav2.2 calcium channel.
human α2δ-1 subunit of Cav2.2 calcium channel, sequence (P54289 25-1103): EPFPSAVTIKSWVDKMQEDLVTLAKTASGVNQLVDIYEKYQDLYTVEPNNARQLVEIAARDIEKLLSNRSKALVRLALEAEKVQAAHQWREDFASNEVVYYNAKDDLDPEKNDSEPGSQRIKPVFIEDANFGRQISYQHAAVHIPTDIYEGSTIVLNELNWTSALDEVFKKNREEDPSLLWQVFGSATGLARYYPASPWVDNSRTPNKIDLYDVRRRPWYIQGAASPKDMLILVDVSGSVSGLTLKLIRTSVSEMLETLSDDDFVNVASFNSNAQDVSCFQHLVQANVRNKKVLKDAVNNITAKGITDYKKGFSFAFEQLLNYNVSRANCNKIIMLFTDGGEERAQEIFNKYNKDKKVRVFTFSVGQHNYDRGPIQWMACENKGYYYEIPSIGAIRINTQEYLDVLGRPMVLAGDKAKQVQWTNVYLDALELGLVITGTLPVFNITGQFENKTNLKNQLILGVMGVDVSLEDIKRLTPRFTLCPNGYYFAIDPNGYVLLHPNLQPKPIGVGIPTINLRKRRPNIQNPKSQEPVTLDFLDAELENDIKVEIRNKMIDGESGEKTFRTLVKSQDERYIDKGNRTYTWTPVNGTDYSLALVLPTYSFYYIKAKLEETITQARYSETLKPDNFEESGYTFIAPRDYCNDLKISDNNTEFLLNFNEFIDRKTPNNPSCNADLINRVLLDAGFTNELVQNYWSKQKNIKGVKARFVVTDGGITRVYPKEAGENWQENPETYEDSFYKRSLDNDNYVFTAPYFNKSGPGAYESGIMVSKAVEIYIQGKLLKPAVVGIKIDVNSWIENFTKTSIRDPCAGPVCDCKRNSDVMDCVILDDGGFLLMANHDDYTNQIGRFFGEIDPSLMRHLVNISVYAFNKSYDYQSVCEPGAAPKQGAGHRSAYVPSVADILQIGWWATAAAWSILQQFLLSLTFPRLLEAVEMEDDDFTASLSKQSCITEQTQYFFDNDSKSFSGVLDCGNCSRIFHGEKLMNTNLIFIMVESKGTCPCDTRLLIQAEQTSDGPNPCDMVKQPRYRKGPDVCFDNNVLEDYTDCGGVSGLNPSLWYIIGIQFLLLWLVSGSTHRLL
Human α2δ-1 enriched membranes (2.5 μg) were incubated with 15 nM of radiolabeled [3H]-Gabapentin in assay buffer containing Hepes-KOH 10 mM, pH 7.4.
NSB (non specific binding) was measured by adding 10 μM pregabalin. The binding of the test compound was measured at five different concentrations. After 60 min of incubation at 27° C., the binding reaction was terminated by filtering through Multiscreen GF/C (Millipore) presoaked in 0.5% polyethyleneimine in Vacuum Manifold Station, followed by 3 washes with ice-cold filtration buffer containing 50 mM Tris-HCl, pH 7.4.
(§1) Filter plates were dried at 60° C. for 1 h and 30 μl of scintillation cocktail were added to each well before radioactivity reading.
(§2) Readings were performed in a Trilux 1450 Microbeta radioactive counter (Perkin Elmer). • Binding assay to human norepinephrine transporter (NET).

The target of test [2] is human norepinephrine transporter (NET) (Homo sapiens, UniProt P23975). The experiment in a line: Binding assay to human norepinephrine transporter (NET) ([3H]-Nisoxetin). The note with it: Table 2, dual compounds, human NET enriched membranes, read-out: Ki(nM) NET Hum. The procedure: as §2
human norepinephrine transporter (NET), sequence (P23975 whole entry): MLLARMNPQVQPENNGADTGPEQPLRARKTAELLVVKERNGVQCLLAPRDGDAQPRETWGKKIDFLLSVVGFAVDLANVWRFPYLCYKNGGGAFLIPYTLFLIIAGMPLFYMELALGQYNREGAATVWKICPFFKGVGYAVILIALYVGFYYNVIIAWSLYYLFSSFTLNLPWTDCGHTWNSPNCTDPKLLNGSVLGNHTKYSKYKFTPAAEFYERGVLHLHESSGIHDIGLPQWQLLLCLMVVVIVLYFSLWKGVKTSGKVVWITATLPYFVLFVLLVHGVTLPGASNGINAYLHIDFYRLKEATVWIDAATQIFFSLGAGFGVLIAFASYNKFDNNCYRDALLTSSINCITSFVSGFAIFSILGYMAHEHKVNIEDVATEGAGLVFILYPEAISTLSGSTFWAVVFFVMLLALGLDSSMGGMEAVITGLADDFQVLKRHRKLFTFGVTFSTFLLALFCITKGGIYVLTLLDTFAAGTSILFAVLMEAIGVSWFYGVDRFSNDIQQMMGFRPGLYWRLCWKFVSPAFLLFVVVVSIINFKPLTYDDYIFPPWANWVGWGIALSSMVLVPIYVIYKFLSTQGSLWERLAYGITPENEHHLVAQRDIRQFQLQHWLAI
Human norepinephrine transporter (NET) enriched membranes (5 μg) were incubated with 5 nM of radiolabeled [3H]-Nisoxetin in assay buffer containing 50 mM Tris-HCl, 120 mM NaCl, 5 mM KCl, pH 7.4.
NSB (non specific binding) was measured by adding 10 μM desipramine. The binding of the test compound was measured at five different concentrations. After 60 min incubation at 4° C., binding reaction was terminated by filtering through Multiscreen GF/C (Millipore) presoaked in 0.5% polyethyleneimine in Vacuum Manifold Station, followed by 3 washes with ice-cold filtration buffer containing 50 mM Tris-HCl, 0.9% NaCl, pH 7.4.
as §1
Readings were performed in a Trilux 1450 Microbeta radioactive counter (Perkin Elmer).

The mark [3] stands for this setting: Table 1, human α2δ-1 enriched membranes.
Where [4] appears, read: Table 2, dual compounds, human α2δ-1 enriched membranes.

Regarding `CNCCC(Oc1cccc2c1CCCN2C)c1cccs1` (stereo not drawn) [Example 1, N-Methyl-3-((1-methyl-1,2,3,4-tetrahydroquinolin-5-yl)oxy)-3-(thiophen-2-yl)propan-1-amine], the results for the Ki in test [1] (setting [3]), in test [1] (setting [4]) and in test [2] were 100 to 500 nM, 100 to 500 nM and 500 to 1000 nM, respectively.

In the case of `CNCCC(Oc1cccc2c1CCN(CC(F)F)C2)c1cccs1` (stereo not drawn) [Example 3, 3-((2-(2,2-difluoroethyl)-1,2,3,4-tetrahydroisoquinolin-5-yl)oxy)-N-methyl-3-(thiophen-2-yl)propan-1-amine], the values for the Ki in test [1] (setting [3]), in test [1] (setting [4]) and in test [2] were 100 to 500 nM, 100 to 500 nM and 500 to 1000 nM, respectively.
